Measurements from paper PMC9012943, “Oral remdesivir derivative VV116 is a potent inhibitor of respiratory syncytial virus with efficacy in mouse model” (Signal Transduction and Targeted Therapy, 2022).
Values joined by “and” are separate entries in the source; they are usually repeats but may differ in a detail not shown here. Identical values can stand only once. Like-named read-outs stand apart in the source and are kept apart here.

Tests used:
RSV A2 [1] = assay: Inhibition of RSV A2 replication in A549 cells (qRT-PCR); assay type: cell-based, respiratory syncytial virus; conditions: for EC50: human respiratory syncytial virus, RSV A2 MOI 2, 48 h
Procedure: A549, HEp-2 or NHBE cells were plated into 48 well-plate and incubated overnight. Upon reaching 80% cell confluence, cells were infected RSV A2 (at an MOI of 2 in A549, MOI of 0.5 in HEp-2, and MOI of 1 in NHBE cells) for 2 h after cells were incubated for 1 h with varying concentrations of drugs. Then, the virus-drug mixture was removed, and cells were cultured with drug-containing medium. At 48 h post inoculation, total RNAs were extracted from cells and then in reverse transcription using PrimeScript RT reagent Kit with gDNA Eraser (TaKaRa). For determining the viral copies, absolute quantitative RT-PCR was performed with TB Green® Premix Ex Taq^TM II (TaKaRa). RSV A2 F fragment was quantified with primers 5’-[…]-3’; and 5’-[…]-3’

[2] = Cellular toxicity in A549 cells (WST-8 cell viability); assay type: cell-based; conditions: human
Procedure: Cell viability was performed in 96-well plate with triplicate for each concentration. All drugs were diluted 2 times with 9 gradients starting at 500 micromores in maintenance medium (DMEM containing 2% FBS). After 48 h incubation, the supernatant was removed, and 10 μL WST-8 (2-(2-methoxy-4-(phenyl)-3-(4-(phenyl) to 5 (2, 4-sulpho benzene) -2 h-tetrazolium monosodium salt) in maintenance medium was added in medium. Plates were measured at 450 nm wavelength using spectrophotometer (BioTek) after 2 h incubation, and cell viability was calculated.

[3] = Pharmacokinetic study in SD rats; assay type: in vivo
Procedure: SD rats (N = 3 for each group, male) were fasted for 12 h before dosing (only for the oral administration). The test compound (VV116 or VV116-H) was administered intravenously at 5.0 mg/kg dissolved in DMSO-enthanol-PEG300-saline (5/5/40/50, v/v/v/v), and administered orally at 30 mg/kg dissolved in 40%PEG400+10% Kolliphor® HS15+50% ultrapure water. At 5 min, 0.25, 0.5, 1.0, 2.0, 4.0, 6.0, 8.0, and 24 h post-dosing, blood samples were collected from the jugular vein into EDTA-K2 tubes. […] samples were obtained following general procedures and the concentrations of analytes in the supernatant were analyzed by LC-MS/MS.

RSV A2 [4] = assay type: in vivo, Balb/c mice; conditions: ribavirin 100 mg/kg b.i.d., day 4 p.i.
Procedure: Considering the potent effect of VV116 inhibiting RSV in vitro, we further tested the effect of […] against RSV in a mouse model. Ribavirin, the off-label used drug to treat RSV in the clinic, was employed as a control. To this end, 6–8-week Balb/c mice were intranasally infected with 4 × 10^6 FFU of RSV per mouse (day 0), and were then treated with VV116 (25, 50, and 100 mg/kg) or ribavirin (50 and 100 mg/kg) bis in die (b.i.d.) (supplementary Fig S3). […] Viral RNA level in the lung was measured with quantitative RT-PCR and virion load was measured with immunoplaque assay (Fig. 1e). […] We also evaluated the lung pathology of the challenged mice by histochemical analysis.
Specific pathogen-free (SPF) female Balb/c mice at the age of 6–8 weeks were purchased from Beijing Vital River Laboratory Animal Technology Co., Ltd. The mice were housed in an SPF environment under standard conditions. All mouse experiments were approved by the ethics committee of the Wuhan Institute of Virology, Chinese Academy of Science (permit number WIVA25202113). Thirty mice (5 animals per group, 6 groups) were anaesthetized with isoflurane and challenged with 4×10^6 FFU of RSV A2 intranasally (i.n.). The mice were given drugs by intragastric administration. Treatments were commenced in 1 h post infection and continued for 4 days. […] The weight of the mice was recorded daily. […]

RSV = test system: RSV; design: method as in PMID 8413475; conditions: prophylactic treatment; cited from earlier work
[5] = A549 cells, 48 h, read-out: CC50
[6] = X1 (VV116) or GS-441524 (VV116-H), i.v. 5.0 mg/kg
[7] = X1 (VV116) or GS-441524 (VV116-H), p.o. 30.0 mg/kg

## Nc1ccn([C@@H]2O[C@@](CO)(CCl)[C@@H](O)[C@H]2F)c(=O)n1 [ALS-8112]
RSV A2 [1]
  SI: > 1785
  EC50: 280 ± 70 nM
[2]; [5]
  CC50 at 48 h: > 500000 nM

## N#C[C@@]1(c2ccc3c(N)ncnn23)O[C@H](CO)[C@@H](O)[C@H]1O [GS-441524, 1′-CN-4-aza-7,9-dideazaadenosine C-nucleoside]
RSV A2 [1]
  SI: > 608
  EC50: 820 ± 460 nM
[2]; [5]
  CC50 at 48 h: > 500000 nM

## CCC(CC)COC(=O)[C@H](C)N[P@](=O)(OC[C@H]1O[C@@](C#N)(c2ccc3c(N)ncnn23)[C@H](O)[C@@H]1O)Oc1ccccc1 [RDV, Remdesivir]
RSV A2 [1]
  SI: 11300
  EC50: 20 ± 3 nM
[2]
  CC50 at 48 h: 226000 ± 11400 nM

## CC(C)C(=O)OC[C@H]1O[C@@](C#N)(c2ccc3c(N)ncnn23)[C@H](OC(=O)C(C)C)[C@@H]1OC(=O)C(C)C [VV116-H]
[3]; IV 5.0 mg/kg, 5 min
  Concentration of X1 or GS-441524 in plasma, Mean: 1997 ng/mL
[3]; IV 5.0 mg/kg, 5 min, 5 mg/kg
  Concentration of X1 or GS-441524 in plasma, individual rats: 1940 ng/mL and 1960 ng/mL and 2090 ng/mL
[3]; IV 5.0 mg/kg, 0.25 h
  Concentration of X1 or GS-441524 in plasma, Mean: 1557 ng/mL
[3]; IV 5.0 mg/kg, 0.25 h, 5 mg/kg
  Concentration of X1 or GS-441524 in plasma, individual rats: 1560 ng/mL and 1620 ng/mL and 1490 ng/mL
[3]; IV 5.0 mg/kg, 0.5 h
  Concentration of X1 or GS-441524 in plasma, Mean: 983 ng/mL
[3]; IV 5.0 mg/kg, 0.5 h, 5 mg/kg
  Concentration of X1 or GS-441524 in plasma, individual rats: 1040 ng/mL and 921 ng/mL and 988 ng/mL
[3]; IV 5.0 mg/kg, 1.0 h
  Concentration of X1 or GS-441524 in plasma, Mean: 502 ng/mL
[3]; IV 5.0 mg/kg, 1.0 h, 5 mg/kg
  Concentration of X1 or GS-441524 in plasma, individual rats: 425 ng/mL and 522 ng/mL and 558 ng/mL
[3]; IV 5.0 mg/kg, 2.0 h
  Concentration of X1 or GS-441524 in plasma, Mean: 158 ng/mL
[3]; IV 5.0 mg/kg, 2.0 h, 5 mg/kg
  Concentration of X1 or GS-441524 in plasma, individual rats: 150 ng/mL and 163 ng/mL and 162 ng/mL
[3]; IV 5.0 mg/kg, 4.0 h
  Concentration of X1 or GS-441524 in plasma, Mean: 25 ng/mL
[3]; IV 5.0 mg/kg, 4.0 h, 5 mg/kg
  Concentration of X1 or GS-441524 in plasma, individual rats: 23.6 ng/mL and 24.3 ng/mL and 27.8 ng/mL
[3]; IV 5.0 mg/kg, 6.0 h
  Concentration of X1 or GS-441524 in plasma, Mean: 11 ng/mL
[3]; IV 5.0 mg/kg, 6.0 h, 5 mg/kg
  Concentration of X1 or GS-441524 in plasma, individual rats: BQL (2×) and 11.2 ng/ml
[3]; IV 5.0 mg/kg, 8.0 h
  Concentration of X1 or GS-441524 in plasma, individual rats: BQL
[3]; IV 5.0 mg/kg, 24.0 h
  Concentration of X1 or GS-441524 in plasma, individual rats: BQL
[3]; PO 30.0 mg/kg, 5 min
  Concentration of X1 or GS-441524 in plasma, Mean: 251 ng/mL
[3]; PO 30.0 mg/kg, 5 min, 30 mg/kg
  Concentration of X1 or GS-441524 in plasma, individual rats: 122 ng/mL and 279 ng/mL and 353 ng/mL
[3]; PO 30.0 mg/kg, 0.25 h
  Concentration of X1 or GS-441524 in plasma, Mean: 1480 ng/mL
[3]; PO 30.0 mg/kg, 0.25 h, 30 mg/kg
  Concentration of X1 or GS-441524 in plasma, individual rats: 1450 ng/mL and 1180 ng/mL and 1810 ng/mL
[3]; PO 30.0 mg/kg, 0.5 h
  Concentration of X1 or GS-441524 in plasma, Mean: 1963 ng/mL
[3]; PO 30.0 mg/kg, 0.5 h, 30 mg/kg
  Concentration of X1 or GS-441524 in plasma, individual rats: 1790 ng/mL and 1440 ng/mL and 2660 ng/mL
[3]; PO 30.0 mg/kg, 1.0 h
  Concentration of X1 or GS-441524 in plasma, Mean: 1523 ng/mL
[3]; PO 30.0 mg/kg, 1.0 h, 30 mg/kg
  Concentration of X1 or GS-441524 in plasma, individual rats: 1570 ng/mL and 1490 ng/mL and 1510 ng/mL
[3]; PO 30.0 mg/kg, 2.0 h
  Concentration of X1 or GS-441524 in plasma, Mean: 1717 ng/mL
[3]; PO 30.0 mg/kg, 2.0 h, 30 mg/kg
  Concentration of X1 or GS-441524 in plasma, individual rats: 1610 ng/mL and 1730 ng/mL and 1810 ng/mL
[3]; PO 30.0 mg/kg, 4.0 h
  Concentration of X1 or GS-441524 in plasma, Mean: 860 ng/mL
[3]; PO 30.0 mg/kg, 4.0 h, 30 mg/kg
  Concentration of X1 or GS-441524 in plasma, individual rats: 761 ng/mL and 995 ng/mL and 825 ng/mL
[3]; PO 30.0 mg/kg, 6.0 h
  Concentration of X1 or GS-441524 in plasma, Mean: 179 ng/mL
[3]; PO 30.0 mg/kg, 6.0 h, 30 mg/kg
  Concentration of X1 or GS-441524 in plasma, individual rats: 154 ng/mL and 165 ng/mL and 218 ng/mL
[3]; PO 30.0 mg/kg, 8.0 h
  Concentration of X1 or GS-441524 in plasma, Mean: 76 ng/mL
[3]; PO 30.0 mg/kg, 8.0 h, 30 mg/kg
  Concentration of X1 or GS-441524 in plasma, individual rats: 32.8 ng/mL and 90 ng/mL and 106 ng/mL
[3]; PO 30.0 mg/kg, 24.0 h
  Concentration of X1 or GS-441524 in plasma, Mean: 13 ng/mL
[3]; PO 30.0 mg/kg, 24.0 h, 30 mg/kg
  Concentration of X1 or GS-441524 in plasma, individual rats: 9.79 ng/mL and 23.3 ng/mL and 6.27 ng/mL
[3]; [6]
  AUC0-t: 1689 ± 80 ng·h/mL
  AUC0-∞: 1709 ± 74 ng·h/mL
  CL: 48.8 ± 2.1 mL/min/kg
  Cmax: 1997 ± 81 ng/mL
  MRT0-∞: 0.82 ± 0.05 h
  T1/2: 0.73 ± 0.07 h
  Vss: 2.41 ± 0.05 L/kg
[3]; [7]
  AUC0-t: 7664 ± 802 ng·h/mL
  AUC0-∞: 7768 ± 827 ng·h/mL
  Cmax: 2060 ± 520 ng/mL
  MRT0-∞: 3.47 ± 0.80 h
  T1/2: 4.59 ± 2.08 h
  Tmax: 1.00 ± 0.87 h
[3]; X1 (VV116) or GS-441524 (VV116-H), p.o. 30.0 mg/kg vs i.v. 5.0 mg/kg
  F: 75.6%

## [2H]c1cc([C@]2(C#N)O[C@H](COC(=O)C(C)C)[C@@H](OC(=O)C(C)C)[C@H]2OC(=O)C(C)C)n2ncnc(N)c12 [X6]
RSV A2 [1]
  SI: 80
  EC50: 1200 ± 320 nM
[2]; [5]
  CC50 at 48 h: 95900 ± 9270 nM

## NC(=O)c1ncn([C@@H]2O[C@H](CO)[C@@H](O)[C@H]2O)n1 [ribavirin, Ribavirin]
RSV A2 [4]
  Decrease of infectious titers in lung: ~ 2.0 log10
  Decrease of viral RNA copies in lung: ~ 1.5 log10

## palivizumab: approved prophylactic treatment for prevention of serious RSV lower respiratory tract disease in high-risk children
RSV
  Share of individuals in whom effective in preventing hospitalization: ~ 50%
